How the values were obtained:
Details in all cases: incubation time: 72 h
BT-474 [1] = assay: normalised response (% of control), CellTox Green; higher = less cell death (100 = DMSO, 0 = benzethonium chloride kill control)
How it was run: (§1)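 For each plate, 0.1 % DMSO was set to 100 and a positive kill control to 0. Breast cancer cell lines (20 µl suspension) were seeded into 384-well plates already holding compound at 5 concentrations in 10-fold steps over a 10,000-fold range chosen per compound, and incubated for 72 h. CellTox Green fluorescence at 485/520 nm was read before CellTiter-Glo luminescence, which followed 10 min at room temperature. Each value is the normalised signal at one concentration.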

BT-549 [2] = assay: as above
How it was run: as §1

CAL-120 [3] = assay: as above
How it was run: as §1

CAL-148 [4] = assay: as above
How it was run: as §1

CAL-51 [5] = assay: as above
How it was run: as §1

CAL-85-1 [6] = assay: as above
How it was run: as §1

DU-4475 [7] = assay: as above
How it was run: as §1

HCC1143 [8] = assay: as above
How it was run: as §1

HCC1599 [9] = assay: as above
How it was run: as §1

HCC1937 [10] = assay: as above
How it was run: as §1

HDQ-P1 [11] = assay: as above
How it was run: as §1

Hs578T [12] = assay: as above
How it was run: as §1

MCF-10A [13] = assay: as above
How it was run: as §1

MDA-MB-231 [14] = assay: as above
How it was run: as §1

MDA-MB-436 [15] = assay: as above
How it was run: as §1

MDA-MB-453 [16] = assay: as above
How it was run: as §1

MDA-MB-468 [17] = assay: as above
How it was run: as §1

MFM-223 [18] = assay: as above
How it was run: as §1

BT-474 [19] = assay: normalised response (% of control), CellTiter-Glo; higher = more viable cells (100 = DMSO, 0 = benzethonium chloride kill control)
Method: (§2)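 DSRT, 72 h incubation, CellTox Green / CellTiter-Glo readout. Signal is normalised to DMSO and benzethonium chloride controls. Value is the normalised response at the highest dose.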

BT-549 [20] = assay: as above
Method: as §2

CAL-120 [21] = assay: as above
Method: as §2

CAL-148 [22] = assay: as above
Method: as §2

CAL-51 [23] = assay: as above
Method: as §2

CAL-85-1 [24] = assay: as above
Method: as §2

DU-4475 [25] = assay: as above
Method: as §2

HCC1143 [26] = assay: as above
Method: as §2

HCC1599 [27] = assay: as above
Method: as §2

HCC1937 [28] = assay: as above
Method: as §2

HDQ-P1 [29] = assay: as above
Method: as §2

Hs578T [30] = assay: as above
Method: as §2

MCF-10A [31] = assay: as above
Method: as §2

MDA-MB-231 [32] = assay: as above
Method: as §2

MDA-MB-436 [33] = assay: as above
Method: as §2

MDA-MB-453 [34] = assay: as above
Method: as §2

MDA-MB-468 [35] = assay: as above
Method: as §2

MFM-223 [36] = assay: as above
Method: as §2

SK-BR-3 = assay: as above
Method: as §2

| Compound | normalised response (BT-474 [1]) [%] | normalised response (BT-549 [2]) [%] | normalised response (CAL-120 [3]) [%] | normalised response (CAL-148 [4]) [%] | normalised response (CAL-51 [5]) [%] | normalised response (CAL-85-1 [6]) [%] | normalised response (DU-4475 [7]) [%] | normalised response (HCC1143 [8]) [%] | normalised response (HCC1599 [9]) [%] | normalised response (HCC1937 [10]) [%] | normalised response (HDQ-P1 [11]) [%] | normalised response (Hs578T [12]) [%] | normalised response (MCF-10A [13]) [%] | normalised response (MDA-MB-231 [14]) [%] | normalised response (MDA-MB-436 [15]) [%] | normalised response (MDA-MB-453 [16]) [%] | normalised response (MDA-MB-468 [17]) [%] | normalised response (MFM-223 [18]) [%] | normalised response (BT-474 [19]) [%] | normalised response (BT-549 [20]) [%] | normalised response (CAL-120 [21]) [%] | normalised response (CAL-148 [22]) [%] | normalised response (CAL-51 [23]) [%] | normalised response (CAL-85-1 [24]) [%] | normalised response (DU-4475 [25]) [%] | normalised response (HCC1143 [26]) [%] | normalised response (HCC1599 [27]) [%] | normalised response (HCC1937 [28]) [%] | normalised response (HDQ-P1 [29]) [%] | normalised response (Hs578T [30]) [%] | normalised response (MCF-10A [31]) [%] | normalised response (MDA-MB-231 [32]) [%] | normalised response (MDA-MB-436 [33]) [%] | normalised response (MDA-MB-453 [34]) [%] | normalised response (MDA-MB-468 [35]) [%] | normalised response (MFM-223 [36]) [%] | normalised response (SK-BR-3) [%] |
| --- | --- | --- | --- | --- | --- | --- | --- | --- | --- | --- | --- | --- | --- | --- | --- | --- | --- | --- | --- | --- | --- | --- | --- | --- | --- | --- | --- | --- | --- | --- | --- | --- | --- | --- | --- | --- | --- |
| CO[C@H]1C[C@@H]2CC[C@@H](C)[C@@](O)(O2)C(=O)C(=O)N2CCCC[C@H]2C(=O)O[C@H]([C@H](C)C[C@@H]2CC[C@@H](OCCO)[C@H](OC)C2)CC(=O)[C@H](C)/C=C(\C)[C@@H](O)[C@@H](OC)C(=O)[C@H](C)C[C@H](C)/C=C/C=C/C=C/1C [Everolimus] (100 nM) | 100 | 100 | 99.3 | 92.5 | 98.1 | 122 | 95.4 | 66.4 | 95.8 | 88.6 | 109 | 79.6 | 92.9 | 111 | 99.7 | 104 | 158 | 53.1 | 77.6 | 61 | 63.5 | 53.4 | 64.3 | 63.1 | 63.7 | 61.5 | 104 | 66.1 | 72.9 | 65.1 | 80.9 | 87.9 | 75.5 | 51.5 | 57.5 | 61.6 | 49.5 |
| CCCCCCCCc1ccc(CCC(N)(CO)CO)cc1 [Fingolimod] (10000 nM) | 0.12 | 57 | 69.4 | 67.4 | 47.5 | -110 | 100 | 97 | 91.4 | 5.79 | 53.7 | 37.8 | -90 | -62.5 | 44.4 | 33.6 | -186 | 62.1 | 1.96 | 11.2 | 78.1 | 44.7 | 47.6 | -0.17 | 89.2 | 75.8 | 61.6 | 5.87 | 27.9 | 62.2 | -0.32 | 1.4 | 12.8 | 0.66 | -0.02 | 39.2 | -0.19 |
| COc1ccccc1S(=O)(=O)Nc1ccc2c(c1)CN(C)C(=O)N2 [PFI-1] (10000 nM) | 105 | 108 | 104 | 91.6 | 83.5 | 65.1 | 90.2 | 104 | 104 | 120 | 103 | 135 | 125 | 117 | 101 | 94.5 | 193 | 103 | 64.6 | 44.5 | 75.8 | 82 | 56.9 | 46.2 | 71.8 | 67.1 | 56.6 | 74.1 | 65.2 | 41.6 | 54.1 | 66.8 | 80 | 42.8 | 65.4 | 59.5 | 64.3 |
| C/C(=C\c1csc(C)n1)[C@@H]1C[C@@H]2O[C@]2(C)CCC[C@H](C)[C@H](O)[C@@H](C)C(=O)C(C)(C)[C@@H](O)CC(=O)O1 [Patupilone] (1000 nM) | 52.6 | 74.4 | 87.5 | 52.6 | 41.2 | -11.4 | 100 | 53.7 | 92.5 | 103 | 93.3 | -68.9 | 20.1 | -10.5 | 78.4 | 96.4 | 97.4 | 55.5 | 36.8 | 18.5 | 58.4 | 54.1 | 25.4 | 20.7 | 49.2 | 31.3 | 25.3 | 74 | 62.4 | 12.2 | 41.5 | 29.8 | 31.5 | 53.2 | 36 | 47.4 | 11.7 |
| NS(=O)(=O)OC[C@@H]1C[C@@H](n2ccc3c(N[C@H]4CCc5ccccc54)ncnc32)C[C@@H]1O [Pevonedistat] (10000 nM) | 104 | 78.3 | 97 | 90.7 | -20.5 | 53.7 | 73.8 | 87.8 | 72.6 | 107 | 90.5 | 91 | 95.7 | 100 | 28.2 | 95.5 | 56.6 | 99 | 45.5 | 27 | 47.8 | 123 | 10 | 39.7 | 0.22 | 33.9 | 18.2 | 60.3 | 72.6 | 60.1 | 91.2 | 46 | 21 | 66.2 | 32.9 | 49.9 | 30.4 |
| CN(C)C[C@@H]1CCn2cc(c3ccccc32)C2=C(C(=O)NC2=O)c2cn(c3ccccc23)CCO1 [Ruboxistaurin] (10000 nM) | -10.6 | 30.4 | 76.3 | 10.5 | -50.2 | -82.9 | 92.1 | 103 | 91.6 | 33 | 26.2 | 62.9 | 54.2 | -85 | -6.73 | 9.28 | -88 | 73.5 | 4.02 | 10.1 | 55.2 | 0.12 | 7.88 | 1.43 | 62.1 | 48.1 | 78.9 | 38.5 | 35 | 70.6 | 42.6 | 0.34 | 3.33 | 0.01 | 1.42 | 34.9 | -0.11 |
| Cn1cncc1[C@@](N)(c1ccc(Cl)cc1)c1ccc2c(c1)c(-c1cccc(Cl)c1)cc(=O)n2C [Tipifarnib] (10000 nM) | 75.5 | 90.4 | 81 | 89.5 | 84 | 75.2 | 85.6 | 98.7 | 98 | 72.2 | 69.9 | 101 | 92.6 | 57.5 | 81.1 | 92.4 | 88.8 | 75.5 | 53.9 | 40.3 | 63.4 | 54.7 | 59.1 | 61.5 | 46.9 | 49.6 | 40.6 | 53.1 | 60.2 | 49.6 | 74.3 | 73.8 | 34.7 | 63.7 | 31.8 | 39.6 | 33.5 |
| O=C1NC(=O)[C@@H](c2cn3c4c(cccc24)CCC3)[C@@H]1c1c[nH]c2ccccc12 [Tivantinib] (1000 nM) | 76 | 85.3 | 74.4 | 71.5 | 26.8 | 20.5 | 93.6 | 104 | 77.5 | 84.5 | 80.2 | 52.5 | 57.7 | 11.1 | 68.1 | 96.2 | 60.4 | 76.4 | 60.2 | 35.4 | 49.4 | 41.5 | 38.7 | 30.6 | 71.6 | 53.5 | 47.9 | 69.4 | 69.9 | 24.6 | 58.1 | 56.2 | 43.6 | 54.3 | 29.7 | 60 | 16.4 |

Reference: the supplement of paper PMC4862054
